In PubChem BioAssay (NCI):
Where “and” joins values, the source holds several entries; their conditions need not be identical. Identical values can stand only once.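 Tested at 5 concentrations; 48 h exposure; 96-well plates; endpoints linearly interpolated, else capped at highest concentration. Here, GI50 denotes the concentration required for 50% inhibition of growth. Definition used: TGI = concentration required for complete inhibition of growth.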

What was measured:
Assay in all cases: growth of human tumour cells (NCI), 48 h
NCI-H23 lung = system: NCI-H23 lung
SK-MEL-5 melanoma = system: SK-MEL-5 melanoma
CAKI-1 renal = system: CAKI-1 renal
MALME-3M melanoma = system: MALME-3M melanoma
SK-MEL-28 melanoma = system: SK-MEL-28 melanoma
SNB-75 CNS = system: SNB-75 CNS
NCI-H460 lung = system: NCI-H460 lung
HS 578T breast = system: HS 578T breast
T-47D breast = system: T-47D breast
SR leukemia = system: SR leukemia

Row | SMILES | TGI (NCI-H23 lung) | TGI (SK-MEL-5 melanoma) | TGI (CAKI-1 renal) | TGI (MALME-3M melanoma) | TGI (SK-MEL-28 melanoma) [µM] | TGI (SNB-75 CNS) | TGI (NCI-H460 lung) | GI50 (NCI-H23 lung) [µM] | GI50 (SK-MEL-5 melanoma) [µM] | GI50 (CAKI-1 renal) [µM] | GI50 (MALME-3M melanoma) [µM] | GI50 (HS 578T breast) [µM] | TGI (HS 578T breast) [µM] | GI50 (SK-MEL-28 melanoma) [µM] | GI50 (SNB-75 CNS) [µM] | GI50 (NCI-H460 lung) [µM] | GI50 (T-47D breast) [µM] | TGI (T-47D breast) [µM] | TGI (SR leukemia) [µM]
1 | CCOC(=O)c1cn(CC)c2cc3c(cc2c1=O)SCS3 | > 100 µM | > 100 µM | > 100 µM | > 100 µM | > 100 | > 100 µM | > 100 µM | – | – | – | – | – | – | – | – | – | – | – | –
2 | O=C1c2ccn(CCCCN(CCO)CCO)c2C(=O)c2c1c(O)c1ccccc1c2O | 3.02 µM | 78.9 µM | 21.7 µM | 35.2 µM | > 100 | 65.5 µM | 26.1 µM | 1.66 | 13.2 | 8.24 | 10 | 17.4 | 59.3 | 5.05 | 21.4 | 7.1 | 22.9 | > 69.6 | –
3 | CC(=O)O[C@H]1CC[C@@]2(C)C(=C/C(=N\[N+](=O)[O-])[C@H]3C4CCC([C@H](C)CCCC(C)C)[C@@]4(C)CCC32)C1 (stereo partly drawn) | > 100 µM | > 100 µM | > 100 µM | > 100 µM | > 100 | > 100 µM | > 100 µM | – | – | – | – | – | – | – | – | – | – | – | –
4 | O=C1C=C(OCCCl)C(=O)c2c(O)ccc(O)c21 | 0.503 µM and 3.22 µM | 0.321 µM and 0.299 µM | 3.88 µM and 3.16 µM | 0.34 µM and 0.911 µM | – | 0.97 µM and 3.74 µM | 2.05 µM and 4.67 µM | 1.5 | – | 1.75 | 0.215 | – | – | 2.08 | 2.1 | 2.15 | – | 4.52 | 3.22
5 | COc1ccc(/C(C#N)=C(/N)SCc2ccccc2Cl)cc1 | 34.2 µM | – | – | 44.7 µM | 35.8 | 63.6 µM | – | – | – | – | – | – | – | – | – | – | – | – | > 100
6 | COC(=O)c1nc(N)nc(C(=O)OC)c1C(=O)c1ccccc1 | > 100 µM | > 100 µM | – | > 100 µM | > 100 | > 100 µM | > 100 µM | – | – | – | – | – | – | – | – | – | – | – | > 100
7 | O=c1[nH]c2c(c3ccccc13)CCc1ccccc1-2 | > 100 µM | > 100 µM | > 100 µM | > 100 µM | > 100 | > 100 µM | – | – | – | – | – | – | – | – | – | – | – | – | > 100
8 | NC(=O)N/N=C(\CCC(=O)N(Cc1ccccc1)Cc1ccccc1)CC(=O)c1ccc(F)cc1 | > 100 µM | > 100 µM | > 100 µM | > 100 µM | > 100 | – | > 100 µM | – | – | – | – | – | – | – | – | – | – | – | > 100
9 | [O-][n+]1c2cc(CN3CCOCC3)c(CN3CCOCC3)cc2[n+]([O-])c2c(O)cccc21 | 8.88 µM | > 37.9 µM | > 23.9 µM | 25.3 µM | 32.5 | 21.3 µM | 4.5 µM | – | – | – | – | – | – | – | – | – | – | – | 0.701
10 | Cc1cccc(N=C2NC(=O)C(CC(=O)Nc3ccccc3Cl)S2)c1 (stereo not drawn) | > 100 µM | > 100 µM | > 100 µM | > 100 µM | > 100 | > 100 µM | > 100 µM | – | – | – | – | – | – | – | – | – | – | – | > 100
11 | COc1cc(/C=C\c2ccc(Cl)cc2)cc(OC)c1OC | 1.12 µM | 12.8 µM | 47.4 µM | 57.3 µM | > 67.5 | – | > 100 µM | – | – | – | – | – | – | – | – | – | – | – | 16.7
12 | COC(=O)C1C(/C=C/c2ccoc2)ON2CCC[C@@H]12 (stereo partly drawn) | > 100 µM | – | > 100 µM | > 100 µM | > 100 | > 100 µM | > 100 µM | – | – | – | – | – | – | – | – | – | – | – | > 100
13 | O=C(NC1C=Nc2ccccc2NC1=O)c1ccccc1Cl (stereo not drawn) | > 100 µM | > 100 µM | > 100 µM | > 100 µM | > 100 | > 100 µM | > 100 µM | – | – | – | – | – | – | – | – | – | – | – | > 100
14 | COc1ccc(/C=N\O[Si](C)(C)C(C)(C)C)cc1O[Si](C)(C)C(C)(C)C | 37.1 µM | 33.9 µM | 40.2 µM | 37.4 µM | – | 37.1 µM | 46.3 µM | – | – | – | – | – | – | – | – | – | – | – | –
15 | OC1c2ccccc2C2C(O)c3ccccc3C12 (stereo not drawn) | > 100 µM | > 100 µM | > 100 µM | > 100 µM | > 100 | > 100 µM | > 100 µM | – | – | – | – | – | – | – | – | – | – | – | –
16 | O=C1NN=C(c2ccc([N+](=O)[O-])cc2)C1n1nc(-c2ccccc2)c2ccccc2c1=O (stereo not drawn) | > 100 µM | > 100 µM | > 100 µM | > 100 µM | > 100 | > 100 µM | > 100 µM | – | – | – | – | – | – | – | – | – | – | – | > 100
17 | NNC(=S)N/N=C(/C(=O)Nc1ccc([N+](=O)[O-])cc1)c1nc2ccc([N+](=O)[O-])cc2[nH]c1=O | > 100 µM | > 100 µM | > 100 µM | > 100 µM | > 100 | > 100 µM | > 100 µM | – | – | – | – | – | – | – | – | – | – | – | > 100
18 | O=C1NN=CN2C(=O)CCC12 (stereo not drawn) | > 100 µM | > 100 µM | > 100 µM | – | > 100 | > 100 µM | > 100 µM | – | – | – | – | – | – | – | – | – | – | – | > 100
19 | O=C(CC(=O)C1CCOC1=O)C(=O)Nc1ccc(Cl)cc1 (stereo not drawn) | > 100 µM | > 100 µM | > 100 µM | > 100 µM | > 100 | > 100 µM | > 100 µM | – | – | – | – | – | – | – | – | – | – | – | –
